Data on two molecules can be found in patent US8986696B2, “Trans-capsular administration of p38 map kinase inhibitors into orthopedic joints” (DePuy Mitek, Inc., priority 2007, dated 2015).

The term Kd denotes the constant that tells how readily two partners part at equilibrium. Broadly, the IC50 is the concentration that inhibits the measured activity by half.

The test system of assay [1] is rabbit anterior cruciate ligament transection (ACLT) model of osteoarthritis. The experiment in a line: ACLT model, p38 MAP kinase inhibitors (Example VII). In kind it is in vivo. More on the design: key to Clinical Scoring - Total Score, Mean / Clinical Scoring - Trochlear Groove Effects, Mean / Clinical Scoring - All Tibial Plateau Effects, Mean / Clinical Scoring - All Cartilage Effects, Mean / Clinical Scoring - All Condylar Effects, Mean: gross joint damage score; higher = more damage. The settings on record: for All Condylar Effects: at the low dose; for Total Score / All Cartilage Effects: both doses; for All Cartilage Effects: compared to the non-injected control group; for lateral femoral condyle surface erosion: high and low dose. On the procedure: New Zealand white rabbits (male, six to eight pounds) were anesthetized with ketamine (17 mg/kg) and xylazine (2.5 mg/kg). Supplementation was given during surgery, if needed, with an additional intramuscular injection of ketamine (35 mg/kg) and xylazine (5 mg/kg). The animals were given buprenorphine (0.01-0.05 mg/kg) for analgesia via a subcutaneous injection. The buprenorphine was administered every twelve hours for seventy-two hours. After induction of anesthesia, the right leg was clipped free of hair using electric animal clippers. The area around the site of surgery was scrubbed with chlorhexidine diacetate, rinsed with alcohol, dried, and painted with an aqueous iodophor solution of 1% available iodine and surgery was prepared using aseptic technique. In the right limb of each animal, the anterior cruciate ligament (ACL) was transected. A medial parapatellar incision was made and the patella was dislocated. The knee was flexed and the ACL visualized. A scalpel blade was positioned behind the ACL and brought anteriorly, thereby cutting the ACL while protecting the posterior cruciate ligament. The patella was returned to the normal anatomic position. The wound was closed in layers.
Following surgery, the animals were left untreated for six weeks. After six weeks, a series of five injections of the test compound were injected intra-articularly once weekly.
The animals were euthanized six weeks after initiation with an intravenous injection of pentobarbital (60 mg/kg). […] Immediately following euthanasia, gross observations of the knee joints were made and any abnormality was recorded. The joints were analyzed for disease state in the trochlear groove, the femoral condyles and the tibial plateau. Pathological assessments were performed on the sectioned tissue. Condylar structure, cellularity, presence of GAG and presence of cartilage were evaluated.
Sterile formulations of the test compounds were prepared by gamma irradiating (15 kGy) them on dry ice. […] All formulations were prepared in an aseptic manner by dispersing the drug into ARTHREASE®. […] The drug was delivered in a volume of 160 μL at a concentration of […]. The low dose was made by diluting with ARTHREASE® to the final concentration.
Ninety-six (96) rabbits underwent ACLT on the right knee (n=ten per group) according to the ACLT model. Anesthesia, analgesia, surgical preparation, surgery, intra-articular injections, and euthanasia were conducted according to the ACLT model.
At the time of sacrifice, the following parameters were evaluated grossly (the scale follows in parenthesis):
Each parameter was given a score. The combination of all parameters gave a Total Score. A higher score indicates more damage to the joint. […] Individual results for each parameter assessed were tabulated. Data for the individual scores is not shown.

Assay [2] concerns the target inactivated p38 MAP kinase (Homo sapiens, UniProt Q16539). The experiment in a line: binding to inactivated p38 MAP kinase. Particulars: read-out: binds to inactivated p38 MAP kinase, Kd.
Assay [3] has as its system LPS-induced IL-1 in hPBMC. The experiment in a line: LPS-induced IL-1 in hPBMC. In kind it is cell-based, human.

inactivated p38 MAP kinase, sequence (Q16539 whole entry): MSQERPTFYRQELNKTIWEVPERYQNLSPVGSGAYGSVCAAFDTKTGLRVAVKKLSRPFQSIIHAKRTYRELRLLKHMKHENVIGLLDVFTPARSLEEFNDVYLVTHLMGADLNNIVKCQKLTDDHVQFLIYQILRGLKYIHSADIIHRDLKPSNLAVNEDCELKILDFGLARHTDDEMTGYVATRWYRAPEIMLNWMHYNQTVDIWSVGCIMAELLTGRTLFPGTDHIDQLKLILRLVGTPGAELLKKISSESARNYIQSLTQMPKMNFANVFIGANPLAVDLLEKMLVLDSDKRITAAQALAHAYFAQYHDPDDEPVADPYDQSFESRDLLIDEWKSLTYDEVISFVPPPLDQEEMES

As to `OCCC#Cc1nc(-c2ccc(F)cc2)c(-c2ccncc2)n1CCCc1ccccc1` [JNJ 3026582 (RWJ 67657), 4-[4-(4-fluorophenyl)-1-(3-phenylpropyl)-5-(4-pyridinyl)-1H-imidazol-2-yl]-3-butyn-1-ol], in assay [1], the “All Condylar Effects” value is recorded as “no effect”, the “Total Score” value is on record as “Neither JNJ 3026582 (RWJ 67657) nor SCIO-282 (SD 282) had an effect”, the “All Cartilage Effects” value was “no efficacy” and the “lateral femoral condyle surface erosion” value is recorded as “no effect”. Moreover, in assay [1] (high dose), the “Clinical Scoring - All Cartilage Effects, Mean” value is 9.75; the “Clinical Scoring - All Condylar Effects, Mean” value amounted to 6.25; the “Clinical Scoring - All Tibial Plateau Effects, Mean” value was 2.25; the “Clinical Scoring - Total Score, Mean” value was determined as 16.58. Also, the “Clinical Scoring - Trochlear Groove Effects, Mean” value in assay [1] (high dose) was determined as 7.92. In assay [1] (low dose), the “Clinical Scoring - All Cartilage Effects, Mean” value amounted to 7.58; the “Clinical Scoring - All Condylar Effects, Mean” value was 4.71; the “Clinical Scoring - All Tibial Plateau Effects, Mean” value is 1.63; the “Clinical Scoring - Total Score, Mean” value was 14.17. Also, in assay [1] (low dose), the “Clinical Scoring - Trochlear Groove Effects, Mean” value worked out at 7.75.
In the case of `CC(=O)N1CCN(c2c(-c3ccncc3)c(-c3ccc(F)cc3)c(C#N)n2C)CC1` [JNJ 17089540 (RWJ 669307)], the Kd in assay [2] was 100 nM. Moreover, the concentration for half-maximal inhibition (IC50) in assay [3] was 250 nM. Besides, in assay [1], the “All Condylar Effects” value is recorded as “decrease in overall clinical score”, the “Total Score” value is on record as “trended downward”, the “All Cartilage Effects” value is reported as “reduction in scores” and the “lateral femoral condyle surface erosion” value is “efficacious in reducing the clinical score”. Also, in assay [1] (high dose), the “Clinical Scoring - All Cartilage Effects, Mean” value amounted to 6.21; the “Clinical Scoring - All Condylar Effects, Mean” value came out at 3.75; the “Clinical Scoring - All Tibial Plateau Effects, Mean” value is reported as 2.38; the “Clinical Scoring - Total Score, Mean” value amounted to 12.46. In assay [1] (high dose), the “Clinical Scoring - Trochlear Groove Effects, Mean” value worked out at 6.25. Besides, in assay [1] (low dose), the “Clinical Scoring - All Cartilage Effects, Mean” value was found to be 5; the “Clinical Scoring - All Condylar Effects, Mean” value is reported as 2.68; the “Clinical Scoring - All Tibial Plateau Effects, Mean” value is reported as 1.95; the “Clinical Scoring - Total Score, Mean” value is on record as 10.41. Moreover, the “Clinical Scoring - Trochlear Groove Effects, Mean” value in assay [1] (low dose) was 5.55.
